Results published in patent publication US20130310256A1, “HERBICIDAL COMPOSITIONS COMPRISING 4-AMINO-3-CHLORO-5-FLUORO-6-(4-CHLORO-2-FLUORO-3-METHOXYPHENYL) PYRIDINE-2-CARBOXYLIC ACID OR A DERIVATIVE THEREOF AND VLCFA AND LIPID SYNTHESIS INHIBITING HERBICIDES” (DOW AGROSCIENCES LLC, priority 2008, published 2013).

Columns and labels:
IPOHE = assay: Example IV: pre-emergence soil-applied weed control, greenhouse; type: in vivo, Ipomoea hederacea Jacq. (ivyleaf morningglory); settings: 27 DAA
Text: Seeds or nutlets of the desired test plant species were planted in a soil matrix prepared by mixing a loam soil (32 percent silt, 23 percent clay, and 45 percent sand, with a pH of about 6.5 and an organic matter content of about 1.9 percent) and calcareous grit in an 80 to 20 ratio. The soil matrix was contained in plastic pots with a volume of 1 quart and a surface area of 83.6 square centimeters (cm^2).
Treatments consisted of the benzyl ester of 4-amino-3-chloro-5-fluoro-6-(4-chloro-2-fluoro-3-methoxy-phenyl)pyridine-2-carboxylic acid (compound A) formulated as an SC (suspension concentrate) and various herbicidal components alone and in combination. Forms of compound A were applied on an acid equivalent basis.
Other herbicidal components were applied on an active ingredient basis and included very long chain fatty acid (VLCFA) synthesis-inhibiting and fatty acid/lipid synthesis-inhibiting herbicides alachlor (technical grade material), dimethenamid-P formulated as Outlook®, and S-metolachlor formulated as Dual® II Magnum.
(§1) Treatment requirements were calculated based upon the rates being tested, the concentration of active ingredient or acid equivalent in the formulation, and a 12 mL application volume at a rate of 187 L/ha.
For treatments comprised of formulated compounds, measured amounts of compounds were placed individually in 25 mL glass vials and diluted in a volume of 1.25% (v/v) Agri-Dex® crop oil concentrate (COC) to obtain 12× stock solutions. […] Application solutions were prepared by adding an appropriate amount of each stock solution (e.g., 1 mL) and diluted to the appropriate final concentrations with the addition of 10 mL of an aqueous mixture of 1.25% (v/v) COC so that the final spray solutions contained 1.25% (v/v) COC.
(§2) For treatments comprised of technical compounds, weighed amounts can be placed individually in 25 mL glass vials and dissolved in a volume of 97:3 (v/v) acetone/DMSO to obtain 12× stock solutions. […] Application solutions can be prepared by adding an appropriate amount of each stock solution (e.g., 1 mL) and diluted to the appropriate final concentrations with the addition of 10 mL of an aqueous mixture of 1.5% (v/v) COC so that the final spray solutions contain 1.25% (v/v) COC. When technical materials are used, the concentrated stock solutions can be added to the spray solutions so that the final acetone and DMSO concentrations of the application solutions are 16.2% and 0.5%, respectively.
For treatments comprised of formulated and technical compounds, weighed amounts of the technical materials were placed individually in 25 mL glass vials and dissolved in a volume of 97:3 (v/v) acetone/DMSO to obtain 12× stock solutions, and measured amounts of the formulated compounds were placed individually in 25 mL glass vials and diluted in a volume of 1.5% (v/v) COC or water to obtain 12× stock solutions. […] Application solutions were prepared by adding an appropriate amount of each stock solution (e.g., 1 mL) and diluted to the appropriate final concentrations with the addition of an appropriate amount of an aqueous mixture of 1.5% (v/v) COC so that the final spray solutions contained 1.25% (v/v) COC. As required, additional water and/or 97:3 (v/v) acetone/DMSO was added to individual application solutions so that the final acetone and DMSO concentrations of the application solutions being compared were 8.1% and 0.25%, respectively.
All stock solutions and applications solutions were visually inspected for compound compatibility prior to application. Spray solutions were applied to the soil with an overhead Mandel track sprayer equipped with a 8002E nozzles calibrated to deliver 187 L/ha over an application area of 0.503 m^2 at a spray height of 18 inches (46 cm) above average pot height. Control pots were sprayed in the same manner with the solvent blank.
The treated and control pots were placed in a greenhouse and top watered as needed. […]

BRAPP = assay: Example I: postemergence foliar-applied weed control, direct seeded rice weeds, greenhouse; type: in vivo; settings: foliar
Text: Seeds or nutlets of the desired test plant species were planted in a soil matrix prepared by mixing a loam or sandy loam soil (e.g., 28.6 percent silt, 18.8 percent clay, and 52.6 percent sand, with a pH of about 5.8 and an organic matter content of about 1.8 percent) and calcareous grit in an 80 to 20 ratio. The soil matrix was contained in plastic pots with a volume of 1 quart and a surface area of 83.6 square centimeters (cm^2). When required to ensure good germination and healthy plants, a fungicide treatment and/or other chemical or physical treatment was applied. The plants were grown for 8-22 days in a greenhouse with an approximate 14 hr photoperiod which was maintained at about 29° C. during the day and 26° C. during the night. Nutrients (Peters Excel® 15-5-15 5-Ca 2-Mg and iron chelate) were applied in the irrigation solution as needed and water was added on a regular basis. Supplemental lighting was provided with overhead metal halide 1000-Watt lamps as necessary. The plants were employed for testing when they reached the first through fourth true leaf stage.
Treatments consisted of the acid or esters of 4-amino-3-chloro-5-fluoro-6-(4-chloro-2-fluoro-3-methoxy-phenyl)pyridine-2-carboxylic acid (Compound A), each formulated as an SC (suspension concentrate), and various herbicidal components alone and in combination. Forms of compound A were applied on an acid equivalent basis.
Other herbicidal components were applied on an active ingredient basis and included very long chain fatty acid (VLCFA) synthesis-inhibiting and fatty acid/lipid synthesis-inhibiting herbicides acetochlor (technical grade material), acetochlor+dichlormid formulated as Topnotch®, pretilachlor (technical grade material), butachlor formulated as Butachlor EC, fentrazamide formulated as Fentrazamide EC, thiobencarb formulated as Bolero® 8EC, cafenstrole formulated as Himeadow® WP or Lapost® Flowable, benfuresate formulated as Full Shot®, dimethenamid-P formulated as Outlook®, indanofan (technical grade material), flufenacet formulated as Define® DF, mefenacet (technical grade material), S-metolachlor formulated as Dual® II Magnum, pethoxamid formulated as Successor® 600, and pyroxasulfone (technical grade material).
as §1
For treatments comprised of formulated compounds, measured amounts of compounds were placed individually in 25 mL glass vials and diluted in a volume of 1.25% (v/v) Agri-Dex® crop oil concentrated to obtain 12× stock solutions. […] Application solutions were prepared by adding an appropriate amount of each stock solution (e.g., 1 mL) and diluted to the appropriate final concentrations with the addition of 10 mL of an aqueous mixture of 1.25% (v/v) crop oil concentrate so that the final spray solutions contained 1.25+/−0.05% (v/v) crop oil concentrate.
as §2, with “97:3 v/v” for “97:3 (v/v)”, “(v/v) crop oil concentrate” for “(v/v) COC”, “(v/v) crop oil concentrate.” for “(v/v) COC.”, “respectively. […]” for “respectively.”

CHEAL = assay: Example III: post-emergence foliar-applied weed control in cereal crops, greenhouse; type: in vivo, Chenopodium album L.; settings: 21 DAA
Procedure: (§3) Seeds of the desired test plant species were planted in Sun Gro MetroMix® 306 planting mixture, which typically has a pH of 6.0 to 6.8 and an organic matter content of about 30 percent, in plastic pots with a surface area of 103.2 square centimeters (cm^2). When required to ensure good germination and healthy plants, a fungicide treatment and/or other chemical or physical treatment was applied. The plants were grown for 7-36 days in a greenhouse with an approximate 14 hour photoperiod which was maintained at about 18° C. during the day and 17° C. during the night. Nutrients and water were added on a regular basis and supplemental lighting was provided with overhead metal halide 1000-Watt lamps as necessary. The plants were employed for testing when they reached the second or third true leaf stage.
(§4) Treatments consisted of the benzyl ester of 4-amino-3-chloro-5-fluoro-6-(4-chloro-2-fluoro-3-methoxy-phenyl)pyridine-2-carboxylic acid (Compound A), formulated as an SC (suspension concentrate), and a second cereal herbicide alone and in combination.
(§5) Measured aliquots of the benzyl ester of 4-amino-3-chloro-5-fluoro-6-(4-chloro-2-fluoro-3-methoxy-phenyl)pyridine-2-carboxylic acid (Compound A) were placed in 25 milliliter (mL) glass vials and diluted in a volume of 1.25% (v/v) Agri-dex crop oil concentrated to obtain stock solutions. Compound requirements are based upon a 12 mL application volume at a rate of 187 liters per hectare (L/ha). Spray solutions of the second cereal herbicide and experimental compound mixtures were prepared by adding the stock solutions to the appropriate amount of dilution solution to form 12 mL spray solution with active ingredients in two- and three-way combinations. Formulated compounds were applied to the plant material with an overhead Mandel track sprayer equipped with an 8002E nozzle calibrated to deliver 187 L/ha over an application area of 0.503 square meters (m^2) at a spray height of 18 inches (46 cm) above average plant canopy. Control plants were sprayed in the same manner with the solvent blank.
(§6) The treated plants and control plants were placed in a greenhouse as described above and watered by sub-irrigation to prevent wash-off of the test compounds. After 20-22 days, the condition of the test plants as compared with that of the control plants was determined visually and scored on a scale of 0 to 100 percent where 0 corresponds to no injury and 100 corresponds to complete kill.
(§7) Colby's equation was used to determine the herbicidal effects expected from the mixtures (Colby, S. R. 1967. Calculation of the synergistic and antagonistic response of herbicide combinations. Weeds 15:20-22.).

CIRAR = assay: as above; type: in vivo, Cirsium arvense (L.) Scop.; settings: 21 DAA
Procedure: as §3, §4, §5, §6, §7

KCHSC = assay: as above; type: in vivo, Kochia scoparia (L.) Schrad.; settings: 21 DAA
Procedure: as §3, §4, §5, §6, §7

PAPRH = assay: as above; type: in vivo, Papaver rhoeas L.; settings: 21 DAA
Procedure: as §3, §4, §5, §6, §7

SASKR = assay: as above; type: in vivo, Salsola tragus L.; settings: 21 DAA
Procedure: as §3, §4, §5, §6, §7

SINAR = assay: as above; type: in vivo, Sinapis arvensis L.; settings: 21 DAA
Procedure: as §3, §4, §5, §6, §7

STEME = assay: as above; type: in vivo, Stellaria media (L.) Vill.; settings: 21 DAA
Procedure: as §3, §4, §5, §6, §7

CCc1cccc(CC)c1N(COC)C(=O)CCl [Alachlor, 2-chloro-N-(2,6-diethylphenyl)-N-(methoxymethyl)acetamide]
Visual Weed Control IPOHE Obs (IPOHE; 1240 gai/ha): 5% | Visual Weed Control IPOHE Obs (IPOHE; 2480 gai/ha): 13%

CC(C)N(C(=O)COc1nnc(C(F)(F)F)s1)c1ccc(F)cc1 [Flufenacet, N-(4-fluorophenyl)-N-(1-methylethyl)-2-[[5-(trifluoromethyl)-1,3,4-thiadiazol-2-yl]oxy]acetamide]
Visual Weed Control (%) - 22 DAA BRAPP Obs (BRAPP; 187.5 gai/ha): 10% | Visual Weed Control (%) - 22 DAA BRAPP Obs (BRAPP; 375 gai/ha): 20% | Visual Weed Control (%) - 22 DAA BRAPP Obs (BRAPP; 750 gai/ha): 40% | Visual Weed Control CHEAL Obs (CHEAL; 60 gai/ha): 0% | Visual Weed Control CHEAL Obs (CHEAL; 120 gai/ha): 0% | Visual Weed Control CIRAR Obs (CIRAR; 60 gai/ha): 0% | Visual Weed Control CIRAR Obs (CIRAR; 120 gai/ha): 0% | Visual Weed Control CIRAR Obs (CIRAR; 240 gai/ha): 17% | Visual Weed Control KCHSC Obs (KCHSC; 60 gai/ha): 5% | Visual Weed Control KCHSC Obs (KCHSC; 120 gai/ha): 5% | Visual Weed Control KCHSC Obs (KCHSC; 240 gai/ha): 17% | Visual Weed Control PAPRH Obs (PAPRH; 60 gai/ha): 0% | Visual Weed Control PAPRH Obs (PAPRH; 120 gai/ha): 5% | Visual Weed Control PAPRH Obs (PAPRH; 240 gai/ha): 7% | Visual Weed Control SASKR Obs (SASKR; 60 gai/ha): 5% | Visual Weed Control SASKR Obs (SASKR; 120 gai/ha): 5% | Visual Weed Control SASKR Obs (SASKR; 240 gai/ha): 13% | Visual Weed Control SINAR Obs (SINAR; 60 gai/ha): 5% | Visual Weed Control SINAR Obs (SINAR; 120 gai/ha): 8% | Visual Weed Control STEME Obs (STEME; 60 gai/ha): 0% | Visual Weed Control STEME Obs (STEME; 120 gai/ha): 5% | Visual Weed Control STEME Obs (STEME; 240 gai/ha): 42%
